Reference: the NIST ThermoML archive (doi:10.1016/j.fluid.2016.07.022)

Conditions: 101.33 kPa, Liquid; for viscosity: Falling or rolling sphere viscometry; for speed of sound: Frequency=3 MHz, Single path-length method; for mass density: Vibrating tube method

CCCC(=O)[O-].CCCC[NH2+]CCO [N-(2-hydroxyethyl)butan-1-aminium butyrate]
Conditions | mass density [kg/m3] | speed of sound [m/s] | viscosity [mPa·s]
293.15 K | 983.7 | 1484.6 | 748.6
298.15 K | 980.1 | 1466.6 | 576.8
303.15 K | 976.6 | 1449 | 435.9
308.15 K | 973 | 1431.9 | 318.9
313.15 K | 969.4 | 1415.2 | 231.6
318.15 K | 965.7 | 1398.7 | 158.1
323.15 K | 962 | 1382.4 | 122.4
328.15 K | 958.3 | 1366.2 | 92.6
333.15 K | 954.5 | 1350.2 | 69.8
338.15 K | 950.7 | 1334.1 | 55.2
343.15 K | 946.9 | 1318.2 | 43.1

CCCC[NH2+]CCO.O=C[O-] [N-(2-hydroxyethyl)butan-1-aminium formate]
Conditions | mass density [kg/m3] | speed of sound [m/s] | viscosity [mPa·s]
293.15 K | 1038.1 | 1616.5 | 474.4
298.15 K | 1035.1 | 1602.4 | 332.8
303.15 K | 1032.1 | 1588.4 | 234.2
308.15 K | 1029.1 | 1574.7 | 170.2
313.15 K | 1026.1 | 1561.4 | 128.3
318.15 K | 1023.1 | 1548.2 | 96.9
323.15 K | 1020.1 | 1535.1 | 75
328.15 K | 1017 | 1522.2 | 57.3
333.15 K | 1013.9 | 1509.2 | 45.7
338.15 K | 1010.9 | 1496.4 | 36.3
343.15 K | 1007.8 | 1483.4 | 29.3

CC(=O)[O-].CCCC[NH2+]CCO [N-(2-hydroxyethyl)butan-1-aminium acetate]
Conditions | mass density [kg/m3] | speed of sound [m/s] | viscosity [mPa·s]
293.15 K | 1021.2 | 1566.5 | 548.2
298.15 K | 1017.8 | 1546.5 | 421.6
303.15 K | 1014.3 | 1528.1 | 295.4
308.15 K | 1010.8 | 1510.8 | 214.5
313.15 K | 1007.3 | 1494 | 158.4
318.15 K | 1003.8 | 1477.6 | 119
323.15 K | 1000.3 | 1461.4 | 89.4
328.15 K | 996.6 | 1445.2 | 68.6
333.15 K | 993 | 1429.3 | 54
338.15 K | 989.3 | 1413.2 | 42.9
343.15 K | 985.6 | 1397.2 | 34.5
